# Experimental data taken from patent US20250353891A1 (MEDIMMUNE LIMITED, priority 2022, published 2025).
# Starred links: 1 amine or outer side, 2 acyl side, 3 side chain; linkers in the order of their positions; H or OH if unused. Non-standard residues stand in square brackets, D forms with d. Residues, ends and D or L forms follow the SMILES beside them. Groups on a side chain read outwards from the residue. *: point of attachment. C20 diacid = O=C(O)CCCCCCCCCCCCCCCCCCC(=O)*; C18 diacid = O=C(O)CCCCCCCCCCCCCCCCC(=O)*; γGlu = O=C(O)[C@H](CCC(=O)[*:2])N[*:1]; αMeF = C[C@](N)(Cc1ccccc1)C(=O)O; AEEA = NCCOCCOCC(=O)O; Aib = CC(C)(N)C(=O)O
# Key:
# [1] = molecular target: human glucagon receptor (hGCGR) (Homo sapiens, UniProt P47871); assay: cAMP production (HTRF) in CHO cells expressing hGCGR; format: cell-based; design: expressed in transfected cells; conditions: Table 6, peptides modified at position 17; cAMP in CHO hGCGR cells; geometric mean; read-out: hGluc-R EC50
# Sequence of human glucagon receptor (hGCGR) (P47871 26-477): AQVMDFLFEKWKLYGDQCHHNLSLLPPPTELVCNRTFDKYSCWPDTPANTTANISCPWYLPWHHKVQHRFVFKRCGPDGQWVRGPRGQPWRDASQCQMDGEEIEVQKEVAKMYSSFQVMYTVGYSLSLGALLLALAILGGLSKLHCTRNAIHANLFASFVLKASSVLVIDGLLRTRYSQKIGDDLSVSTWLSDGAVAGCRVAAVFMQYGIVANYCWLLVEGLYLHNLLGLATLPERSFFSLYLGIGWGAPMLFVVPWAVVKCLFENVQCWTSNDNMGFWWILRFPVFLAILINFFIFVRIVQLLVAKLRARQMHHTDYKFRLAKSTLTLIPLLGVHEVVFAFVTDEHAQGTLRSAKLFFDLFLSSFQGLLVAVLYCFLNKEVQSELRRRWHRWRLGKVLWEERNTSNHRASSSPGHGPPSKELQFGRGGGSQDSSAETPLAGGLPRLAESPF
# Procedure, shortened: (§1)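 Read-out: HTRF cAMP (anti-cAMP cryptate donor, cAMP-d2 acceptor in conjugate/lysis buffer), converted to % Delta F and fitted by 4-parameter logistic for EC50. Cell densities were 1×10^5 cells/mL (hGLP-1R) or 2×10^5 cells/mL (hGCGR). Stimulation lasted 30 min at room temperature.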
# [2] = molecular target: human GLP-1 receptor (hGLP-1R) (Homo sapiens, UniProt P43220); assay: cAMP production (HTRF) in CHO cells expressing hGLP-1R; format: cell-based; design: expressed in transfected cells; conditions: for EC50: Table 6, peptides modified at position 17, cAMP in CHO hGLP-1R cells, geometric mean, read-out: hGLP-1R EC50; for % Relative Potency Ratio: Table 6, % GLP-1R activity relative to GLP-1 / % GlucR activity relative to glucagon
# Sequence of human GLP-1 receptor (hGLP-1R) (P43220 24-463): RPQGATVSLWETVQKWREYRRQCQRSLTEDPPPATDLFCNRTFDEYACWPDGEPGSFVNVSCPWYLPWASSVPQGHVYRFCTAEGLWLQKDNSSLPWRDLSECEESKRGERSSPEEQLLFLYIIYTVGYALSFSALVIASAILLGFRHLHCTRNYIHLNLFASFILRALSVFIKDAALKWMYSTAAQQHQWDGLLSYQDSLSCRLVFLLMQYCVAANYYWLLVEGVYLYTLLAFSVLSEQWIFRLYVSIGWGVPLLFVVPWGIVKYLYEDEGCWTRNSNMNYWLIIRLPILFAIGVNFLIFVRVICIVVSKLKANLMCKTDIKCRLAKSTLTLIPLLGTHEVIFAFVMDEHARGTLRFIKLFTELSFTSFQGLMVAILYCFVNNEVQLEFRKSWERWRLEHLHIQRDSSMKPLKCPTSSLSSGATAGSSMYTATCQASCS
# Procedure, shortened: as §1
EC50 [1] [nM],EC50 [2] [nM],% Relative Potency Ratio [2],Structure (SMILES)
0.212,0.0987,4.3,CC(C)C[C@H](NC(=O)[C@H](Cc1c[nH]c2ccccc12)NC(=O)[C@H](CCCNC(=N)N)NC(=O)[C@@H](NC(=O)[C@H](Cc1ccccc1)NC(=O)[C@H](CC(=O)O)NC(=O)[C@H](CCC(N)=O)NC(=O)[C@H](C)NC(=O)[C@H](CCCNC(=N)N)NC(=O)[C@H](CCCCNC(=O)COCCOCCNC(=O)COCCOCCNC(=O)CC[C@H](NC(=O)CCCCCCCCCCCCCCCCCCC(=O)O)C(=O)O)NC(=O)[C@@H](NC(=O)[C@H](CC(=O)O)NC(=O)[C@H](CC(C)C)NC(=O)[C@](C)(Cc1ccccc1)NC(=O)[C@H](CCCCN)NC(=O)[C@H](CO)NC(=O)[C@@H](NC(=O)[C@H](CC(=O)O)NC(=O)[C@H](CO)NC(=O)[C@@H](NC(=O)[C@H](Cc1ccccc1)NC(=O)[C@@H](NC(=O)CNC(=O)[C@H](CCC(N)=O)NC(=O)C(C)(C)NC(=O)[C@@H](N)Cc1c[nH]cn1)[C@@H](C)O)[C@@H](C)O)C(C)C)[C@@H](C)O)C(C)C)C(=O)N[C@@H](CC(C)C)C(=O)N[C@@H](CCCNC(=N)N)C(=O)NC(C)(C)C(=O)N[C@@H](CCCCN)C(=O)O [Peptide 494]
0.38,0.0232,32.4,CC(C)C[C@H](NC(=O)[C@H](Cc1c[nH]c2ccccc12)NC(=O)[C@H](CCCNC(=N)N)NC(=O)[C@@H](NC(=O)[C@H](Cc1ccccc1)NC(=O)[C@H](CC(=O)O)NC(=O)[C@H](CCC(N)=O)NC(=O)[C@H](C)NC(=O)[C@H](CCCNC(=N)N)NC(=O)[C@H](CCCCNC(=O)COCCOCCNC(=O)COCCOCCNC(=O)CC[C@H](NC(=O)CCCCCCCCCCCCCCCCC(=O)O)C(=O)O)NC(=O)[C@@H](NC(=O)[C@H](CC(=O)O)NC(=O)[C@H](CC(C)C)NC(=O)[C@](C)(Cc1ccccc1)NC(=O)[C@H](CCCCN)NC(=O)[C@H](CO)NC(=O)[C@@H](NC(=O)[C@H](CC(=O)O)NC(=O)[C@H](CO)NC(=O)[C@@H](NC(=O)[C@H](Cc1ccccc1)NC(=O)[C@@H](NC(=O)CNC(=O)[C@H](CCC(N)=O)NC(=O)C(C)(C)NC(=O)[C@@H](N)Cc1c[nH]cn1)[C@@H](C)O)[C@@H](C)O)C(C)C)[C@@H](C)O)C(C)C)C(=O)N[C@@H](CC(C)C)C(=O)N[C@@H](CCCNC(=N)N)C(=O)NC(C)(C)C(=O)N[C@@H](CCCCN)C(N)=O [Peptide 495] (H-H[Aib]QGTFTSDVSK[αMeF]LDTK([AEEA-AEEA-γGlu-C18 diacid])RAQDFVRWLLR[Aib]K-NH2; N-terminus assumed)
0.482,0.0649,14.7,CC(C)C[C@H](NC(=O)[C@H](Cc1c[nH]c2ccccc12)NC(=O)[C@H](CCCNC(=N)N)NC(=O)[C@@H](NC(=O)[C@H](Cc1ccccc1)NC(=O)[C@H](CC(=O)O)NC(=O)[C@H](CCC(N)=O)NC(=O)[C@H](C)NC(=O)[C@H](CCCNC(=N)N)NC(=O)[C@H](CCCCNC(=O)COCCOCCNC(=O)COCCOCCNC(=O)CC[C@H](NC(=O)CCCCCCCCCCCCCCCCCCC(=O)O)C(=O)O)NC(=O)[C@@H](NC(=O)[C@H](CC(=O)O)NC(=O)[C@H](CC(C)C)NC(=O)[C@](C)(Cc1ccccc1)NC(=O)[C@H](CCCCN)NC(=O)[C@H](CO)NC(=O)[C@@H](NC(=O)[C@H](CC(=O)O)NC(=O)[C@H](CO)NC(=O)[C@@H](NC(=O)[C@H](Cc1ccccc1)NC(=O)[C@@H](NC(=O)CNC(=O)[C@H](CCC(N)=O)NC(=O)C(C)(C)NC(=O)[C@@H](N)Cc1c[nH]cn1)[C@@H](C)O)[C@@H](C)O)C(C)C)[C@@H](C)O)C(C)C)C(=O)N[C@@H](CC(C)C)C(=O)N[C@@H](CCCNC(=N)N)C(=O)NC(C)(C)C(=O)N[C@@H](CCCCN)C(N)=O [Peptide 496] (H-H[Aib]QGTFTSDVSK[αMeF]LDTK([AEEA-AEEA-γGlu-C20 diacid])RAQDFVRWLLR[Aib]K-NH2; N-terminus assumed)
0.118,0.0374,6.3,CC(C)C[C@H](NC(=O)[C@H](Cc1c[nH]c2ccccc12)NC(=O)[C@H](CCCNC(=N)N)NC(=O)[C@@H](NC(=O)[C@H](Cc1ccccc1)NC(=O)[C@H](CC(=O)O)NC(=O)[C@H](CCC(N)=O)NC(=O)[C@H](C)NC(=O)[C@H](CCCNC(=N)N)NC(=O)[C@H](CCCCNC(=O)COCCOCCNC(=O)COCCOCCNC(=O)CC[C@H](NC(=O)CCCCCCCCCCCCCCCCC(=O)O)C(=O)O)NC(=O)[C@@H](NC(=O)[C@H](CC(=O)O)NC(=O)[C@H](CC(C)C)NC(=O)[C@](C)(Cc1ccccc1)NC(=O)[C@H](CCCCN)NC(=O)[C@H](CO)NC(=O)[C@@H](NC(=O)[C@H](CC(=O)O)NC(=O)[C@H](CO)NC(=O)[C@@H](NC(=O)[C@H](Cc1ccccc1)NC(=O)[C@@H](NC(=O)CNC(=O)[C@H](CCC(N)=O)NC(=O)C(C)(C)NC(=O)[C@@H](N)Cc1c[nH]cn1)[C@@H](C)O)[C@@H](C)O)C(C)C)[C@@H](C)O)C(C)C)C(=O)N[C@@H](CC(C)C)C(=O)N[C@@H](CCCNC(=N)N)C(=O)NC(C)(C)C(=O)N[C@@H](C)C(=O)O [Peptide 497] (H-H[Aib]QGTFTSDVSK[αMeF]LDTK([AEEA-AEEA-γGlu-C18 diacid])RAQDFVRWLLR[Aib]A-OH)
0.17,0.156,2.1,CC(C)C[C@H](NC(=O)[C@H](Cc1c[nH]c2ccccc12)NC(=O)[C@H](CCCNC(=N)N)NC(=O)[C@@H](NC(=O)[C@H](Cc1ccccc1)NC(=O)[C@H](CC(=O)O)NC(=O)[C@H](CCC(N)=O)NC(=O)[C@H](C)NC(=O)[C@H](CCCNC(=N)N)NC(=O)[C@H](CCCCNC(=O)COCCOCCNC(=O)COCCOCCNC(=O)CC[C@H](NC(=O)CCCCCCCCCCCCCCCCCCC(=O)O)C(=O)O)NC(=O)[C@@H](NC(=O)[C@H](CC(=O)O)NC(=O)[C@H](CC(C)C)NC(=O)[C@](C)(Cc1ccccc1)NC(=O)[C@H](CCCCN)NC(=O)[C@H](CO)NC(=O)[C@@H](NC(=O)[C@H](CC(=O)O)NC(=O)[C@H](CO)NC(=O)[C@@H](NC(=O)[C@H](Cc1ccccc1)NC(=O)[C@@H](NC(=O)CNC(=O)[C@H](CCC(N)=O)NC(=O)C(C)(C)NC(=O)[C@@H](N)Cc1c[nH]cn1)[C@@H](C)O)[C@@H](C)O)C(C)C)[C@@H](C)O)C(C)C)C(=O)N[C@@H](CC(C)C)C(=O)N[C@@H](CCCNC(=N)N)C(=O)NC(C)(C)C(=O)N[C@@H](C)C(=O)O [Peptide 498] (H-H[Aib]QGTFTSDVSK[αMeF]LDTK([AEEA-AEEA-γGlu-C20 diacid])RAQDFVRWLLR[Aib]A-OH; N-terminus assumed)
0.0788,0.0406,3.8,CC(C)C[C@H](NC(=O)[C@H](Cc1c[nH]c2ccccc12)NC(=O)[C@H](CCC(N)=O)NC(=O)[C@@H](NC(=O)[C@H](Cc1ccccc1)NC(=O)[C@H](CC(=O)O)NC(=O)[C@H](CCC(N)=O)NC(=O)[C@H](C)NC(=O)[C@H](CCCNC(=N)N)NC(=O)[C@H](CCCCNC(=O)COCCOCCNC(=O)COCCOCCNC(=O)CC[C@H](NC(=O)CCCCCCCCCCCCCCCCC(=O)O)C(=O)O)NC(=O)[C@@H](NC(=O)[C@H](CC(=O)O)NC(=O)[C@H](CC(C)C)NC(=O)[C@](C)(Cc1ccccc1)NC(=O)[C@H](CCCCN)NC(=O)[C@H](CO)NC(=O)[C@@H](NC(=O)[C@H](CC(=O)O)NC(=O)[C@H](CO)NC(=O)[C@@H](NC(=O)[C@H](Cc1ccccc1)NC(=O)[C@@H](NC(=O)CNC(=O)[C@H](CCC(N)=O)NC(=O)C(C)(C)NC(=O)[C@@H](N)Cc1c[nH]cn1)[C@@H](C)O)[C@@H](C)O)C(C)C)[C@@H](C)O)C(C)C)C(=O)N[C@@H](CC(C)C)C(=O)N[C@@H](CCCNC(=N)N)C(=O)NC(C)(C)C(=O)N[C@@H](C)C(=O)O [Peptide 499] (H-H[Aib]QGTFTSDVSK[αMeF]LDTK([AEEA-AEEA-γGlu-C18 diacid])RAQDFVQWLLR[Aib]A-OH; N-terminus assumed)
0.101,0.102,2.0,CC(C)C[C@H](NC(=O)[C@H](Cc1c[nH]c2ccccc12)NC(=O)[C@H](CCC(N)=O)NC(=O)[C@@H](NC(=O)[C@H](Cc1ccccc1)NC(=O)[C@H](CC(=O)O)NC(=O)[C@H](CCC(N)=O)NC(=O)[C@H](C)NC(=O)[C@H](CCCNC(=N)N)NC(=O)[C@H](CCCCNC(=O)COCCOCCNC(=O)COCCOCCNC(=O)CC[C@H](NC(=O)CCCCCCCCCCCCCCCCCCC(=O)O)C(=O)O)NC(=O)[C@@H](NC(=O)[C@H](CC(=O)O)NC(=O)[C@H](CC(C)C)NC(=O)[C@](C)(Cc1ccccc1)NC(=O)[C@H](CCCCN)NC(=O)[C@H](CO)NC(=O)[C@@H](NC(=O)[C@H](CC(=O)O)NC(=O)[C@H](CO)NC(=O)[C@@H](NC(=O)[C@H](Cc1ccccc1)NC(=O)[C@@H](NC(=O)CNC(=O)[C@H](CCC(N)=O)NC(=O)C(C)(C)NC(=O)[C@@H](N)Cc1c[nH]cn1)[C@@H](C)O)[C@@H](C)O)C(C)C)[C@@H](C)O)C(C)C)C(=O)N[C@@H](CC(C)C)C(=O)N[C@@H](CCCNC(=N)N)C(=O)NC(C)(C)C(=O)N[C@@H](C)C(=O)O [Peptide 500] (H-H[Aib]QGTFTSDVSK[αMeF]LDTK([AEEA-AEEA-γGlu-C20 diacid])RAQDFVQWLLR[Aib]A-OH; N-terminus assumed)
